Tested on: monoclonal antibodies induced by Compound A
Assay: Inhibition of the antibody-catalyzed hydrolysis of Compound 1 by free Compound A
Assay type: biochemical, mice
Conditions: all three monoclonal antibodies
Method: The production of Compound 2 by a monoclonal antibody composition of this invention was assayed at a concentration of 20 μM monoclonal antibody and 1.5 mM Compound 1 in 10 percent dimethylsulfoxide (DMSO)/ATE buffer (0.52M ACES, 0.52M Tris, 0.01M ethanolamine pH 9.0) at 25° C. The initial rate of hydrolysis of Compound 1 by the monoclonal antibodies produced by three hybridomas followed Michaelis-Menten kinetics (Table 1 hereinafter).

CC1(OP(=O)(O)Cc2ccc(CCN)cc2)CCCCC1 [Compound A]
inhibition of the hydrolytic reaction by addition of free Compound A: extensive inhibition
